What was measured:
progerin = molecular target: T1, progerin (Mus musculus, UniProt P48678, DEL608-657); assay: Progerin degradation, immunoblot in Lmna^G609G/G609G fibroblasts; assay type: cell-based; details: Lmna^G609G/G609G fibroblasts, 5 µM, 8 h, vs vehicle
T1 construct: endogenous in cells; host or cells: immortalized (SV40-LT) fibroblasts from Lmna G609G/G609G mice
T1 sequence (P48678 with tags, fused parts or gaps DEL608-657 limits assumed): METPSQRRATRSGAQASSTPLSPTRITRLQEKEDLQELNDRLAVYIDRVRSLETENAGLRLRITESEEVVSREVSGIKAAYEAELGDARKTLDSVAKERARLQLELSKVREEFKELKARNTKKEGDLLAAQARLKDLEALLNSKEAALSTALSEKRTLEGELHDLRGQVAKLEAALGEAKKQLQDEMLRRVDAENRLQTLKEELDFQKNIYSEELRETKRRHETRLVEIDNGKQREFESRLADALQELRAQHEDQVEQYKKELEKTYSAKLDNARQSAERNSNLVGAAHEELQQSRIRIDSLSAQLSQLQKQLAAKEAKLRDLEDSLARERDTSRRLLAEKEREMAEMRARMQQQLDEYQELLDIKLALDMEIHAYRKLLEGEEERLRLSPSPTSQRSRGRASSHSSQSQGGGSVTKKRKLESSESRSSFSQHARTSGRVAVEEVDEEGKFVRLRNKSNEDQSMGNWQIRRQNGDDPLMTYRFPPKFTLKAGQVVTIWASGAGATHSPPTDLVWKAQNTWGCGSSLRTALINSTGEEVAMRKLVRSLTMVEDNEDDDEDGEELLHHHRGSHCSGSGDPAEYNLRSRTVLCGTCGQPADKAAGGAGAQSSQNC
Method: The ability of compounds 2‐6 to degrade progerin was evaluated in Lmna^G609G/G609G fibroblasts, derived from the progeria mouse model that most closely replicates the human disease phenotype. Lamin A/C antibody was used for immunodetection due to its prevalent use in this context, enabling simultaneous visualization of both lamins and progerin [15].
FIGURE 2 (A) Representative cropped immunoblots and quantification of progerin from Lmna^G609G/G609G fibroblasts. Cells were incubated with vehicle or indicated compound at 5 µM for 8 h. MW, molecular weight (in kDa) markers. (B, C) Concentration and time‐dependency of the reduction of progerin levels induced by compounds 2 and 9. Graphs show quantification of progerin in Lmna^G609G/G609G fibroblasts (immunoblots are shown in Supporting Figure S1). Cells were incubated with vehicle or the indicated compound concentration for 8 h. For time‐course experiments, cells were incubated with vehicle or indicated compound at 5 µM. Bar graphs show mean±sem of 3 independent experiments performed in duplicate. Data were analysed using one‐way ANOVA followed by Dunnett's post–hoc test comparing all groups to the vehicle; ^*, p < 0.05. […]
4. Cell lines and culture.
Progeroid mouse fibroblasts, kindly donated by Prof. Carlos López Otín (Oviedo University, Spain), were isolated from LmnaG609G/G609G mice[19] and wild-type (WT) littermates and immortalized by retroviral transduction with SV40 large T antigen (SV40-LT). Since LmnaG609G/G609G mouse represents the most suitable and widely accepted model of HGPS, as it most faithfully recapitulates the molecular and phenotypic features of the human disease, its use in this study is fully justified. Moreover, although this cell […]
cells have been extensively validated by additional independent studies.[15, 65, 66] […]
experiments, nor does it affect the conclusions presented in our study.
Mouse fibroblasts were grown in Dulbecco’s modified eagle medium (DMEM, Gibco) supplemented with 10% heat inactivated fetal bovine serum (FBS, Gibco), 50 U/mL penicillin, and 50 μg/mL streptomycin (Invitrogen). Human progeroid HGADFN167 LmnaG608G/G608G (G608G) or or healthy HGADFN168 Lmna+/+ (WT) fibroblasts, were obtained from The Progeria Research Foundation (RRIDs CVCL_1Y92 and CVCL_1Y93, respectively) and cultured in DMEM with 20% heat inactivated FBS, 50 U/mL penicillin and 50 μg/mL streptomycin. All cells were incubated in a humidified atmosphere at 37 °C in the presence of 5% CO2 and were confirmed to be free of mycoplasma contamination. […]
Measurements were performed in triplicate, and each experiment was repeated at least three times. The viability values were calculated from the percentage of viable cells with respect to 100% viability of the vehicle-treated cells.
6. Immunoblot and immunocytofluorescence analysis.
Mouse or human progeroid cells were seeded at density of […] or 5 x 10^4 cells respectively on 12-well plates and incubated for 24 h in DMEM medium. For proteosome-dependency assays, cells were pre-treated either with the proteasome inhibitor (S)-MG132 (20 µM) or with the NEDD8-activating enzyme inhibitor MLN4924 (5 µM) for 2 h prior to […]
compound exposure. Then, cells were incubated with compound of interest or DMSO for the appropriate time and lysed with cold laemmli buffer (50 mM Tris-HCl pH 7.4, 150 mM NaCl, 1% Igepal) with a mixture of protease and phosphatase inhibitors (1 mM PMSF, 10 mM NaF, 0.3 mg/mL CalyculinA, 1 mM sodium orthovanadate, 10 mM β-glycerol-phosphate; all from Sigma-Aldrich and complete protease inhibitor cocktail, from Roche). Proteins were denatured at 95 ᵒC for 5 min and the lysates were immediately used or stored at -20 ᵒC until use. Samples were analysed by electrophoresis in polyacrylamide gels (All Kd SDS-PAGE, BioRad) and the proteins transferred to nitrocellulose membranes (GE Healthcare, Amersham). After 1 h of incubation in blocking buffer [20 mM Tris pH 7.6, 150 mM NaCl and 0.1% Tween-20 (TBS-T) with […]

[1] = tested on: Hutchinson‐Gilford Progeria Syndrome; details: progeria patients; cited from earlier work

SMILES | progerin levels (immunoblot quantification) (progerin) | effect on key phenotypic hallmarks of progeria [1] | extension of average life expectancy [1]
CN1C(=O)CCC(N2C(=O)c3cccc(NCCCCCC(=O)O[C@H]4Cc5cc6ccc(=O)oc6cc5OC4(C)C)c3C2=O)C1=O (some centres unmarked) [compound 13] | ineffective in lowering progerin levels | – | –
Cc1ncsc1-c1ccc(CNC(=O)[C@@H]2C[C@@H](O)CN2C(=O)[C@@H](NC(=O)CCCCC(=O)O[C@H]2Cc3cc4ccc(=O)oc4cc3OC2(C)C)C(C)(C)C)cc1 [compound 11] | neither the glutarimide derivative 10 nor the VHL‐ligand‐containing compound 11 led to a significant reduction in progerin levels | – | –
NC(=O)N1CCC(CC(=O)N2CCC([C@H]3c4ncc(Br)cc4CCc4cc(Cl)cc(Br)c43)CC2)CC1 [lonafarnib] | – | does not improve some of the key phenotypic hallmarks of progeria | up to 33%
CC1(C)Oc2cc3oc(=O)ccc3cc2C[C@@H]1OC(=O)CCCCCOc1ccc(C2CCC(=O)NC2=O)cc1 (some centres unmarked) [compound 10] | neither the glutarimide derivative 10 nor the VHL‐ligand‐containing compound 11 led to a significant reduction in progerin levels | – | –

From PMC13252604, “First Generation Proteolysis Targeting Chimeras (PROTACs) for the Treatment of Progeria” (Advanced Science, 2026)
